Source: patent US20090118354A1, “Liquid Pharmaceutical Formulations of Docetaxel” (MAYNE PHARMA LIMITED, priority 2005, published 2009)

Experiment: Accelerated stability testing: impurity analysis by reverse phase HPLC
Format: physicochemical
Description: Each of the formulations prepared was subjected to accelerated stability testing at 40° C.
The analysis of the impurities was undertaken using reverse phase High Performance Liquid Chromatography (HPLC). HPLC is a technique that is widely used and well known in the art. HPLC can be used to measure the potency of the docetaxel where potency is defined as a percentage of the initial concentration of docetaxel. HPLC can also be used to measure the relative proportions of known and unknown impurities in a docetaxel formulation. Any suitable HPLC method which will separate the impurities may be used.
Impurity levels were calculated by peak area normalisation.

[1] = Example 1, one month, accelerated stability 40° C.
[2] = Example 2, one month, accelerated stability 40° C.
[3] = Example 8, Initial (Docetaxel = docetaxel itself)

CC(=O)O[C@@]12CO[C@@H]1C[C@H](O)[C@@]1(C)C(=O)[C@H](O)C3=C(C)[C@@H](OC(=O)[C@H](O)[C@@H](NC(=O)OC(C)(C)C)c4ccccc4)C[C@@](O)([C@@H](OC(=O)c4ccccc4)[C@H]21)C3(C)C [Docetaxel, (2R,3S)-N-carboxy-3-phenylisoserine,N-tert-butylester, 13 ester with 5β-20-epoxy-1,2α,4,7β,10β,13α-hexahydroxytax-11-en-9-one 4-acetate 2 benzoate]
Impurity B (RRT = 0.89) (Example 1, initial time point): 0.08 % peak area
Impurity E (RRT = 1.33) (Example 1, initial time point): 0.07 % peak area
Impurity F (RRT = 1.47) (Example 1, initial time point): 0.10 % peak area
Total Impurities (Example 1, initial time point): 0.25 % peak area
Impurity B (RRT = 0.89) [1]: 0.08 % peak area
Impurity E (RRT = 1.33) [1]: 0.07 % peak area
Impurity F (RRT = 1.47) [1]: 0.10 % peak area
Total Impurities [1]: 0.25 % peak area
Impurity E (RRT = 1.34) (Example 2, initial time point): 0.16 % peak area
Impurity F (RRT = 1.48) (Example 2, initial time point): 0.09 % peak area
Total Impurities (Example 2, initial time point): 0.25 % peak area
Impurity E (RRT = 1.34) [2]: 0.16 % peak area
Impurity F (RRT = 1.48) [2]: 0.09 % peak area
Total Impurities [2]: 0.25 % peak area
Impurity RRT 0.866 [3]: 0.05 % peak area
Impurity RRT 1.821 [3]: 0.08 % peak area
Total impurity [3]: 0.13 % peak area
